The values below come from patent publication US20130280204A1 (priority 2007, published 2013).

Experiment [1] addresses viral NA of TKY Wild-type (Influenza A virus (A/turkey/Minnesota/833/1980(H4N2)), UniProt Q20NP0). Type of experiment: biochemical. The note with it: read-out: Ki (nM, based on ZA) Wild-type.
Experiment [2] addresses viral NA of TKY Drug-free p23 (DF23) (Influenza A virus (A/turkey/Minnesota/833/1980(H4N2)), UniProt Q20NP0). Type of experiment: biochemical. The note with it: read-out: Ki (nM, based on ZA) Drug-free p23.
Experiment [3] deals with A/Nanchang/933/95 (Nanchang) virus. Details: species or system ferrets. The note with it: in vivo.
The subject of experiment [4] is avian strain A/Turkey/MN/80 (TKY). Type of experiment: cell-based, influenza A virus H4N2.
In experiment [5] the test system is avian influenza A/turkey/MN/833/80 (TKY). The experiment is described as follows: microbe, parasite or virus in culture. Type of experiment: cell-based, influenza A virus H4N2.
The test system of a further experiment is TKY Drug-free p23 (DF23). Type of experiment: cell-based, influenza A virus H4N2. The settings on record: read-out: IC50 (nM, based on ZA) Drug-free p23.
Another experiment deals with WSN strain. Details: species or system Balb/C mice. The settings on record: mouse, in vivo.
The subject of a further experiment is TKY Wild-type. Type of experiment: cell-based, influenza A virus H4N2. The note with it: read-out: IC50 (nM, based on ZA) Wild-type.
Experiment [6] deals with human influenza A/Wuhan/359/95 (Wuhan). Description: microbe, parasite or virus in culture. Type of experiment: cell-based, influenza A virus H3N2.
In the next experiment the target is active site of NA. The settings on record: read-out: affinity constant for the active site of NA; cited from earlier work.
The subject of the next experiment is influenza A/WSN/33 (WSN). The experiment is described as follows: microbe, parasite or virus in culture. Format: cell-based, influenza A virus H1N1. The note with it: read-out: IC50 (nM 1) WSN.
Another experiment has as its system TKY virus. Type of experiment: cell-based, influenza A virus H4N2. The settings on record: t=15 min.

Where two headings read alike, the source gives them in different places.

Broadly, the Ki is the dissociation constant of the complex between target and ligand, obtained from inhibition or displacement.

Chain of viral NA of TKY Drug-free p23 (DF23) (Influenza A virus (A/turkey/Minnesota/833/1980(H4N2)), UniProt Q20NP0) (Q20NP0 whole entry, looked up): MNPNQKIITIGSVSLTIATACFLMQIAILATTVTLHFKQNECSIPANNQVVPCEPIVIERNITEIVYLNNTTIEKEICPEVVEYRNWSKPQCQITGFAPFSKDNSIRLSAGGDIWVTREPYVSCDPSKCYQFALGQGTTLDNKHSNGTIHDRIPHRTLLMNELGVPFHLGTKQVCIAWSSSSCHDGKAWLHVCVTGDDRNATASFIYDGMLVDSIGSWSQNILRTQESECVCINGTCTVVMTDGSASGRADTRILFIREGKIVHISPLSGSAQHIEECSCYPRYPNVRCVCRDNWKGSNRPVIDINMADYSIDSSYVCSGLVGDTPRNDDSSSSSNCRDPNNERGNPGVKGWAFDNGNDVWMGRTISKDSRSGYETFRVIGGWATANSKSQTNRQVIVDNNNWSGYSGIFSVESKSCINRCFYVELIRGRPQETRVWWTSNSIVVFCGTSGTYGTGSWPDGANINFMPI
Chain of viral NA of TKY Wild-type (Influenza A virus (A/turkey/Minnesota/833/1980(H4N2)), UniProt Q20NP0) (Q20NP0 whole entry, looked up): as above

Regarding `CC(=O)N[C@H]1[C@H]([C@H](O)[C@H](O)CO)OC(C(=O)O)=C[C@@H]1N=C(N)N` [compound 1, zanamivir], the values for the inhibition constant (Ki) in experiment [1] and in experiment [2] were 5.3 ± 0.4 nM and 8.8 ± 5.6 nM, respectively. Moreover, the “reduction in nasal wash viral titer compared to PBS controls, day 4 p.i.” value in [3] is reported as “did not”. Further, the “reduction in nasal wash viral titer compared to PBS controls, day 6 p.i.” value in experiment [3] was “did not”. In addition, the “reduction in nasal wash viral titer compared to PBS-treated group, day 2 p.i.” value in experiment [3] turned out to be 38 fold. Also, in [4], the “change of potency (IC50), early and late vs late only” value is listed as “remained the same”. Moreover, the IC50 in experiment [5] (H4N2, read-out: IC50 (nM Sugar) Turkey/WT (H4N2)) was 20000 nM; in the experiment with TKY Drug-free p23 (DF23), 38 ± 31 nM; in the experiment on TKY Wild-type it was 56 ± 8 nM; in experiment [6] (H3N2, read-out: IC50 (nM Sugar) Wuhan (H3N2)), 20000 nM. The “drop of viral titers in lung homogenates vs untreated mice” value in the experiment with WSN strain was 20 fold. At active site of NA, the Kd was 0.0001 to 0.001 µM.

Regarding `CC(=O)NC1C(NC(=N)N)C=C(C(=O)O)OC1C(OC(=O)NCCOCCN)C(O)CO` (stereo not shown) [compound 3, 3-Acetamido-2-(1-(((2-(2-aminoethoxy)ethyl)carbamoyl)oxy)-2,3-dihydroxypropyl)-4-guanidino-3,4-dihydro-2H-pyran-6-carboxylic acid], the IC50 in [5] (read-out: IC50 (nM 1) TKY) was 1.4e+06 nM; in experiment [6] (read-out: IC50 (nM 1) Wuhan), 1.3e+06 nM; in the experiment with influenza A/WSN/33 (WSN), 57000 nM.

With `CC(=O)NC1C(NC(=N)N)C=C(C(=O)O)OC1C(OC(=O)Nc1ccc(CN)cc1)C(O)CO` (stereo not shown) [compound 4, 3-Acetamido-2-(1-(((4-(aminomethyl)phenyl)carbamoyl)oxy)-2,3-dihydroxypropyl)-4-guanidino-3,4-dihydro-2H-pyran-6-carboxylic acid], the IC50 in experiment [5] (read-out: IC50 (nM 1) TKY) was 2.3e+06 nM; in [6] (read-out: IC50 (nM 1) Wuhan), 840000 nM; with influenza A/WSN/33 (WSN), 76000 nM.

For the compound `NC12CC3CC(CC(C3)C1)C2` [amantadine], the “viral particles inside the cells” value with TKY virus is “accumulation of viral particles inside the cells”.
